Data: patent US20060100210A1, “Methods for treatment of scleroderma” (priority 2001, published 2006)
Structures can show the parent of a compound that is named as a salt. Where two headings read alike, the source gives them in different places.

Tests used:
[1] = biological target: T1, GST-cGB-PDE5 fusion protein (cGMP binding sites of human PDE5A) (Homo sapiens, UniProt O76074); assay: cGMP binding assay with GST-cGB-PDE5 fusion protein; conditions: for competition with cGMP in binding of GST-cGB-PDE5: high concentration (100 μM) vs cGMP (2 μM)
T1 construct: made in house; host or cells: E. coli BL21 (DE3)
T1 sequence (O76074 46-539 limits assumed): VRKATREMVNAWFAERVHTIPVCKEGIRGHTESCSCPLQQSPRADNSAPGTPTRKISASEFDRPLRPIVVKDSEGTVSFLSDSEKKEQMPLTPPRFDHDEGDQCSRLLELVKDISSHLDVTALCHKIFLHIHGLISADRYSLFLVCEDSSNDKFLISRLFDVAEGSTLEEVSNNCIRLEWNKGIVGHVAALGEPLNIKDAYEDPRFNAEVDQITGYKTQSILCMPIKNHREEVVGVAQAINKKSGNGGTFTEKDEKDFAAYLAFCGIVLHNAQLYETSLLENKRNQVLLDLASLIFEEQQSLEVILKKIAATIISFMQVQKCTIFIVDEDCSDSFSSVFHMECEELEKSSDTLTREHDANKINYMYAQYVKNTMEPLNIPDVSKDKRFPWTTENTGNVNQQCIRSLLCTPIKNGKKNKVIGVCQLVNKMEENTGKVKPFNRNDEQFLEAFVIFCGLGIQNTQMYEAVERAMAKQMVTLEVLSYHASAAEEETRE
Text: RT-PCR method is used to obtain the cGB domain of PDE5 with forward and reverse primers designed from bovine PDE5A cDNA sequence (McAllister-Lucas L. M. et al, J. Biol. Chem. 268, 22863-22873, 1993) and the selection among PDE 1-10 families. 5′-3′, Inc. kits for total RNA followed by oligo (dT) column purification of mRNA are used with HT-29 cells. […] It is then cloned into pGEX-5×-3 […] (GST) fusion vector (Pharmacia Biotech) with tac promoter, and EcoRI and XhoI cut sites. The fusion vector is then transfected into E. Coli BL21 (DE3) bacteria (Invitrogen). The transfected BL21 bacteria is grown to log phase, and then IPTG is added as an inducer. The induction is carried at 20° C. for 24 hrs. The bacteria are harvested and lysed. The soluble cell lysate is incubated with GSH conjugated Sepharose 4B (GSH-Sepharose 4B). The GST-cGB-PDE5 fusion protein can bind to the GSH-Sepharose beads, and the other proteins are washed off from beads with excessive cold PBS.
The vials are counted on a Beckman LS 6500 scintillation counter.
The quenching by filter membrane or other debris are also calibrated.

[2] = Long-term safety assessment, 91 consecutive days, rats; type: in vivo; conditions: 91 days, 200 and 500 mg/kg/day
Text: These changes were not associated with any gross clinical abnormality.

[3] = tested on: U937 cells; assay: Apoptosis induction of U937 cells (active caspase 3, indirect immunofluorescence); type: cell-based; conditions: 1 μM, 24 hours
Experimental: The presence of PDE2 and PDE5 protein within U937 cells was confirmed by indirect immunofluorescence (IIF). U937 cells were cultured as above. Two U937 cultures, one grown in the presence of 5 nM TPA for 48 hours and one grown in normal media were processed. All cultures were collected by centrifugation (Shandon Cytospin, 2 minutes @ 600 rpm) onto poly-L lysine-coated slides and immediately fixed in fresh 3% paraformaldehyde buffered in PBS for 10 minutes. Adherent cultures were grown on coverslips and fixed as above. Cells were permeablized in 0.2% triton-100 for 2 minutes. Slides were blocked with blocking buffer (5% goat serum, 5% glycerol, 1% gelatin from cold water fish skin and 0.04% NaN3 in PBS) for 1 hour at room temperature.
Slides were then incubated for 1 hour at 37° C. in a humid chamber with antibodies specific for PDE2 (generated in a sheep against the peptide […]) or PDE5 (generated in sheep against the peptide […]). The PDE5 antibody was used at a dilution of 1:200 and the PDE2 antibody was used at a dilution of 1:100. All dilutions were performed in blocking buffer. […]
The level of apoptosis in U937 cells was quantified by scoring 500 consecutive cells for the presence of active caspase 3. […]

[4] = Seven-day dose-range finding study in rats; type: in vivo; conditions: 7 days, 500 mg/kg/day
[5] = in vivo; cited from earlier work

Compound	competition with cGMP in binding of GST-cGB-PDE5 (cGMP binding sites) ([1]; 3H-cGMP 2 μM, 22° C., 1 hour)	also measured
CCCCOC1C2OP(=O)(O)OCC2OC1n1cnc2c(N)ncnc21 (stereo not shown) [2′-O-butyl-cAMP]	did not compete with cGMP in binding	–
CCCCOC1C2OP(=O)(O)OCC2OC1n1cnc2c(=O)[nH]c(N)nc21 (stereo not shown) [2′-O-butyl-cGMP]	did not compete with cGMP in binding	–
CC1=C(CC(=O)NCc2ccccc2)c2cc(F)ccc2/C1=C\c1ccncc1 [Compound 38, (Z)-5-Fluoro-2-Methyl-(4-Pyridylidene)-3-(N-Benzyl) Indenylacetamide Hydrochloride]	does not bind to the cGMP-binding site of PDE5	microscopic findings [2]: slight hepatocellular hypertrophy at 200 and 500 mg/kg/day groups, follicular cell hypertrophy at 500 mg/kg/day and increase in accumulation of hyalin droplets in the kidneys at 200 and 500 mg/kg/day group; apoptosis by presence of active caspase 3 (FIG. 8) [3]: undergoing apoptosis; treatment-related effects [4]: limited to an increase in absolute and relative liver weights in female rats
Nc1ncnc2c1ncn2[C@@H]1O[C@@H]2COP(=O)(O)O[C@H]2[C@H]1O [Cyclic AMP]	–	competition with cGMP in binding of GST-cGB-PDE5 (cGMP binding sites) [1]: did not compete with cGMP in binding
O=c1[nH]cnc2c1ncn2[C@@H]1O[C@@H]2COP(=O)(O)O[C@H]2[C@H]1O [Cyclic IMP, cyclic IMP]	–	competition with cGMP in binding of GST-cGB-PDE5 [1]: can partially compete with cGMP
Nc1nc2c(nc(Br)n2[C@@H]2O[C@@H]3COP(=O)(O)O[C@H]3[C@H]2O)c(=O)[nH]1 [Example 8-bromo-cGMP, 8-bromo-cGMP]	–	competition with cGMP in binding of GST-cGB-PDE5 [1]: can partially compete with cGMP
O=C(O)C1CCN(c2nc(NCc3ccc4c(c3)OCO4)c3cc(Cl)ccc3n2)CC1 [Example E4021]	None of the PDE5 inhibitors showed any competition with cGMP	–
CSc1ccc(/C=C2/C(C)=C(CC(=O)O)c3cc(F)ccc32)cc1 [Sulindac sulfide, sulindac sulfide]	None of the PDE5 inhibitors showed any competition with cGMP	–
Nc1ccn([C@@H]2O[C@@H]3COP(=O)(O)O[C@H]3[C@H]2O)c(=O)n1 [cCMP, cyclic CMP]	did not compete with cGMP in binding	–
O=c1ccn([C@@H]2O[C@@H]3COP(=O)(O)O[C@H]3[C@H]2O)c(=O)[nH]1 [cUMP, cyclic UMP]	did not compete with cGMP in binding	–
CC1=C(CC(=O)O)c2cc(F)ccc2/C1=C\c1ccc(S(C)(=O)=O)cc1 [exisulind]	None of the PDE5 inhibitors showed any competition with cGMP	–
CCCOc1ccccc1-c1nc2nn[nH]c2c(=O)[nH]1 [zaprinast]	None of the PDE5 inhibitors showed any competition with cGMP	–
interferon gamma: interferon, drug that affects certain factors in the immune system	–	skin symptoms [5]: modest improvement in skin symptoms
